Test results reported in patent US10426736B2, “Delivering functional nucleic acids to mammalian cells via bacterially-derived, intact minicells” (EnGenelC Molecular Delivery Pty. Ltd., priority 2004, dated 2019).

Key:
Caco-2 cell xenograft [1] = assay: Dosing schedule time-course, Caco-2 xenograft, 5-FU (Example 7); assay type: in vivo, nude mice; conditions: free drug, 1×10^6 ng/dose, intravenous
Method: The experiment described in example 6 was repeated with the same controls and experimental groups except that G2 received free 5-FU (1×10^6 ng/dose) and in G3, G4 and G5, the second treatment was carried out with ^EGFRminicells5-FU. Minicells were administered at 1×10^9 per dose and each dose carried ˜80 ng 5-FU, i.e., ˜12,500-fold lower than free drug administration in G2 mice.

Caco-2 cell xenograft [2] = assay: Dosing schedule time-course, Caco-2 xenograft, irinotecan (Example 6); assay type: in vivo, nude mice; conditions: free drug, ~2.4×10^5 ng/dose, intravenous
Method: Allowing sufficient time for efficient delivery of shRNA to the tumor cells before the receptor-targeted, drug-packaged minicells are administered improves the results. A time-course experiment was performed, wherein ^EGFRminicellsshRNA-MDR-1 were administered intravenously in nude mice carrying Caco-2 cell xenograft. In separate groups (n=11 mice per group), mice were given ^EGFRminicellsIrino either at 96 hr (G3), 120 hr (G4) or 144 hr (G5) after the ^EGFRminicellsshRNA-MDR-1 treatment. G1 and G2 were tumor only and free irinotecan (˜2.4×10^5 ng/dose) controls. The minicells were administered at 5×10^8 per dose and each dose carried ˜80 ng of irinotecan packaged in minicells, which is a 3,000-fold lower dose than that administered as free drug.

[3] = system: Human colon cancer cell line Caco-2; assay: MTT cell proliferation assay, reversal of drug resistance in-vitro; conditions: single treatment; 72 hrs; free drugs 25 μM; MTT read at 490 nm
Method: Caco-2 cells were seeded at 3×10^6 cells/flask in Minimum Essential Medium with 10% cosmic calf serum and incubated for 3 hours at 37° C., 5% CO2.
The cells were treated with (a) ^EGFRminicellsshRNA-MDR-1, and (b) ^EGFRminicellsshRNA-nonsense. […] Minicells were added at a concentration of 10^10 per flask and all flasks were incubated for 72 hrs. The cells from each treatment were trypsinised and seeded at 1×10^4 cells/ml/well in 24-well plates and were incubated for 3 hrs at 37° C., 5% CO2. The control untreated cells were then incubated with (6 wells/treatment) (a) free irinotecan (25 μM), (b) free 5-FU (25 μM), (c) ^EGFRminicellsIrino, and (d) ^EGFRminicells5-FU.
The ^EGFRminicellsshRNA-MDR-1 treated Caco-2 cells were incubated with (6 wells/treatment) (a) ^CMV minicells5-FU (non-specifically targeted since the bispecific antibody is targeted to a surface protein on cytomegalovirus), (b) free irinotecan, (c) free 5-FU EGFR, (d) ^EGFRminicellsIrino, and (e) ^EGFRminicells5-FU. […]
All cells were incubated for a further 72 hrs followed by the colorimetric MTT cell proliferation assay (Cory et al., 1991) using the CellTiter 96 AQueous One Solution Cell Proliferation Assay (Promega Corp., Madison, Wis., USA), according to the manufacturer's instructions. The colorimetric measurements were read at 490 nm.

[4] = system: human breast adenocarcinoma cell line, MDA-MB-468; assay: Doxorubicin sensitivity of MDA-MB-468 cell line; assay type: cell-based; conditions: parental MDA-MB-468

O=c1[nH]cc(F)c(=O)[nH]1 [5-FU, 5-fluorouracil]
effect on tumor growth (FIG. 6) (Caco-2 cell xenograft [1]): no effect

CCc1c2c(nc3ccc(OC(=O)N4CCC(N5CCCCC5)CC4)cc13)-c1cc3c(c(=O)n1C2)COC(=O)[C@]3(O)CC [irinotecan]
effect on tumor growth (FIG. 5) (Caco-2 cell xenograft [2]): no effect | resistance of Caco-2 cells to treatment (cell viability, FIG. 1) [3]: highly resistant

COc1cccc2c1C(=O)c1c(O)c3c(c(O)c1C2=O)C[C@@](O)(C(=O)CO)C[C@@H]3O[C@H]1C[C@H](N)[C@H](O)[C@H](C)O1 [doxorubicin]
sensitivity of cell line to drug [4]: highly sensitive
